Experimental data published in patent US20170281651A1, “CONCOMITANT ADMINISTRATION OF GLUCOCORTICOID RECEPTOR MODULATORS AND CYP3A OR STEROIDOGENESIS INHIBITORS” (Corcept Therapeutics, Inc., priority 2017, published 2017).

How the values were obtained:
Format in all cases: in vivo, human
[1] = Example 3: Phase 1 study of ketoconazole 200 mg twice daily with mifepristone 600 mg once daily with food, plasma PK incl. cross-study comparison; details: for mean increase / change in exposure on co-administration with ketoconazole: 600 mg mifepristone once daily with 200 mg ketoconazole twice daily; for effect of ketoconazole on exposure (90% CI vs standard 80:125 interval): Day 17 vs Day 12; for concentrations on Day 17 compared with Day 12: Day 17 with 200 mg ketoconazole twice daily, Day 12 mifepristone alone; for AUC0-24 Ratio % Test/Ref (cross-study, geometric mean ratio) / Cmax Ratio % Test/Ref (cross-study, geometric mean ratio): Test: Present Study Day 17 600 mg mifepristone OD + 200 mg Ketoconazole BID, Reference: Historic Study Day 7 1200 mg mifepristone OD alone, after 34% fat meal
[2] = Example 2: effect of a 400 mg single dose of ketoconazole on PK of an 8-day regimen of 300 mg or 600 mg OD mifepristone, moderate fat breakfast
Protocol: This was an open-label study in healthy male subjects. […] The 400 mg single dose of ketoconazole was given to all subjects on day 8.
METHODOLOGY: Twelve subjects were enrolled, six in Cohort 1 and 6 in Cohort 2.
Subjects were discharged on Day 11.
Subjects were discharged on Day 11. Subjects in both cohorts returned to study center on Day 13 for safety monitoring, collection of the 120-hour PK draw, and completion of the Termination Visit procedures, followed by discharge from the study. To the extent possible, any adverse events deemed study drug-related and that were ongoing at the time of discharge from the study were followed-up to resolution or until a determination was made that the unresolved event was stable.
DIAGNOSIS AND MAIN […] FOR INCLUSION: Healthy male volunteers between the ages of 18 to 45 years of age with a body mass index (BMI) ranging between 19 and 32 kg/m2 and a weight of at least 60 kg (132 lbs) were enrolled. Subjects had no clinically significant abnormal findings on the physical examination, ECG, blood pressure, heart rate, medical history, or clinical laboratory results during screening. The QTc interval at screening was less than 450 msec.
DURATION OF TREATMENT: Up to a total of 28 days, including up to 2 weeks screening, dosing on Days 1-8, safety observation, and PK sample collection through Day 13.
Additionally, comparisons were made between the PK results of cohort 1 and 2. Pharmacokinetic parameters Cmax, T1/2 and total AUC were calculated for plasma concentrations of ketoconazole following the single dose on Day 8. Descriptive statistics (count, mean, median, standard deviation, minimum, maximum, and % coefficient of variation) were provided. Ketoconazole concentrations were listed and summarized. GM means of Cmax and total AUC were compared for the single dose in this study to the combined data of reported 400 mg single doses of ketoconazole of healthy subjects from the literature.

[3] = Example 1: safety (adverse events, laboratory tests, ECG); details: mifepristone 300 mg single dose with ketoconazole for 14 days
Protocol: In cohort 1, six subjects received ketoconazole 400 mg OD for 14 days.
In cohort 2, six subjects received ketoconazole 200 mg BID for 14 days. […] All 12 subjects completed the study. Cohort 2 subjects participated in a Screening visit to assess eligibility and a check-in Day (Day −1) during which eligibility was re-confirmed. […] The evening of Day 1, subjects received 200 mg oral ketoconazole. Subjects remained in the clinic on Days 2, 3 and 4 to receive 200 mg BID oral ketoconazole, and for safety evaluation and collection of blood pharmacokinetic (PK) samples. Subjects were discharged from the clinic on Day 4 following evening administration of 200 mg oral ketoconazole, and returned to the clinic the morning and evening of Days 5 through 13 to receive 200 mg BID oral ketoconazole. Morning doses of ketoconazole on Days 0-13 were administered in the fasted state.
Subjects in both cohorts returned to the study center on Day 15 for safety monitoring, and completion of the Termination Visit procedures, followed by discharge from the study. Safety was assessed by spontaneously reported adverse events, physical examinations, and routine clinical laboratory tests. To the extent possible, any adverse events deemed study drug-related and that were ongoing at the time of discharge from the study were followed-up to resolution or until a determination is made that the unresolved event was stable.

[4] = Test: Day 17 600 mg mifepristone OD + 200 mg Ketoconazole BID, Reference: Day 12 600 mg mifepristone OD
[5] = single 400 mg ketoconazole dose on Day 8
[6] = 400 mg ketoconazole (200 mg twice per day) concomitantly with 600 mg mifepristone per day, fifth day
[7] = Test: Day 17 600 mg mifepristone OD + 200 mg Ketoconazole BID, Reference: Day −1 200 mg Ketoconazole Single Dose

Row | mean increase / change in exposure on co-administration with ketoconazole [1] | effect of ketoconazole on exposure (90% CI vs standard 80:125 interval) [1] | concentrations on Day 17 compared with Day 12 [1] | AUC0-24 Ratio % Test/Reference (geometric mean ratio) [1, 4] [%] | Cmax Ratio % Test/Reference (geometric mean ratio) [1, 4] [%] | AUC0-24 Ratio % Test/Ref (cross-study, geometric mean ratio) [1] [%] | Cmax Ratio % Test/Ref (cross-study, geometric mean ratio) [1] [%] | mean metabolite exposure compared with mifepristone ([2]; 300 or 600 mg OD mifepristone, Days 7-13) | share of total steady-state AUC0-24 of mifepristone, RU42633, RU42698, RU42848 ([1]; in the presence of ketoconazole) [%] | share of total steady-state AUC0-24 of mifepristone, RU42633, RU42698, RU42848 ([1]; mifepristone alone) [%] | AUCinf higher on 600 mg OD mifepristone regimen relative to 300 mg OD [2, 5] [%] | Cmax higher on 600 mg OD mifepristone regimen relative to 300 mg OD [2, 5] [%] | half-life on either mifepristone regimen ([2]; single 400 mg ketoconazole dose on Day 8, mifepristone 300 vs 600 mg OD) | increase in ketoconazole AUC [1, 6] [%] | increase in ketoconazole Cmax [1, 6] [%] | AUC Ratio % Test/Reference (geometric mean ratio) [1, 7] [%] | Cmax Ratio % Test/Reference (geometric mean ratio) [1, 7] [%] | SMILES | TEAEs considered by the investigator to be related to the drug [3]
1 | little change | not affected | similar | 102.33 | 105.73 | 91.34 | 96.31 |  |  |  |  |  |  |  |  |  |  | CC#C[C@]1(O)CC[C@H]2[C@@H]3CCC4=CC(=O)CCC4=C3[C@@H](c3ccc(NC)cc3)C[C@@]21C [RU 42633, (8S,11R,13S,14S,17S)-17-hydroxy-13-methyl-11-[4-(methylamino)phenyl]-17-prop-1-ynyl-1,2,6,7,8,11,12,14,15,16-decahydrocyclopenta[a]phenanthren-3-one] | 
2 | approximately 70% | increased | higher | 166.86 | 169.13 | 118.18 | 116.55 | lower | 13 | 9 |  |  |  |  |  |  |  | CN(C)c1ccc([C@H]2C[C@@]3(C)[C@@H](CC[C@@]3(O)C#CCO)[C@@H]3CCC4=CC(=O)CCC4=C32)cc1 [RU 42698, (8S,11R,13S,14S,17S)-11-[4-(dimethylamino)phenyl]-17-hydroxy-17-(3-hydroxyprop-1-ynyl)-13-methyl-1,2,6,7,8,11,12,14,15,16-decahydrocyclopenta[a]phenanthren-3-one] | 
3 | little change | not affected | similar | 94.88 | 95.48 | 81.43 | 82.45 |  |  |  |  |  |  |  |  |  |  | CC#C[C@]1(O)CC[C@H]2[C@@H]3CCC4=CC(=O)CCC4=C3[C@@H](c3ccc(N)cc3)C[C@@]21C [RU 42848, (8S,11R,13S,14S,17S)-11-(4-aminophenyl)-17-hydroxy-13-methyl-17-prop-1-ynyl-1,2,6,7,8,11,12,14,15,16-decahydrocyclopenta[a]phenanthren-3-one] | 
4 |  |  |  |  |  |  |  |  |  |  | 36 | 37 | not appreciably different | 253 | 365 | 365.36 | 252.71 | CC(=O)N1CCN(c2ccc(OCC3COC(Cn4ccnc4)(c4ccc(Cl)cc4Cl)O3)cc2)CC1 (centres unmarked) [ketoconazole, 1-acetyl-4-[4-[[2-(2,4-dichlorophenyl)-2-[(1H-imidazol-1-yl)-methyl]-1,3-dioxolan-4-yl]methoxy]phenyl]piperazine] | One TEAE of insomnia
